Measured values reported in US20090012067A1, “Modulation of Hypothalamic Atp-Sensitive Potassium Channels” (priority 2005, published 2009).

Columns and labels:
central KATP channels = experiment: ICV infusion of diazoxide with pancreatic-insulin clamp (1 mU/kg·min) in conscious rats; assay type: in vivo, Sprague-Dawley rats
Text: (§1) Animal preparation for the in vivo experiments. Rats. Eighty-nine 10-week-old male Sprague-Dawley rats (Charles River Breeding Laboratories, Wilmington, Mass.) were studied. Rats were housed in individual cages and subjected to a standard light-dark cycle. Three weeks prior to the in vivo studies, chronic catheters were implanted in the third cerebral ventricle (Obici et al., 2003; Liu et al., 1998) or intrahypothalamically (Morton et al., 2003) (IH) by stereotaxic surgery. One week before the pancreatic-insulin clamp protocols, rats received additional catheters in the right internal jugular and left carotid artery (FIG. 5) (Obici et al., 2003; Liu et al., 1998). In vivo studies. For the studies in rats, the metabolic experiments were performed ˜3 weeks after stereotaxic surgery following complete recovery from the operation (FIG. 5). All solutions were diluted with artificial cerebral spinal fluid (aCSF). […] Pancreatic-insulin clamp studies were performed as previously described (Liu et al., 1998). Euglycemic-hyperinsulinemic clamps in conscious, unrestrained, catheterized mice were performed for 90 min as previously described (Obici et al., 2003; Liu et al., 1998). Hepatic glucose fluxes. Rate of hepatic glucose fluxes was determined as described. Barzilai et al., 1997).

[1] = test system: hypothalamic KATP channels; experiment: central infusion in rats on a high fat diet for three days (hepatic insulin resistance), glucose production; assay type: in vivo; conditions: plasma insulin 20 μU/ml
Method: Additional experiments were also performed in rats maintained on a high fat diet regimen for three days.

[2] = test system: KATP channels within the medial hypothalamus; experiment: Intrahypothalamic (IH) infusion of diazoxide or insulin with pancreatic-insulin clamp; assay type: in vivo, Sprague-Dawley rats; conditions: for rate of glucose infusion required to prevent hypoglycemia: IH infusion during a pancreatic clamp, vs vehicle; for blood glucose levels / GP (glucose production): IH infusion; for blood glucose levels: bilateral, medial hypothalamus, total dose insulin 2 μU; for GP (glucose production): basal circulating insulin
Text: as §1, with “1998).” for “1998). Hepatic glucose fluxes. Rate of hepatic glucose fluxes was determined as described. Barzilai et al., 1997).”

G6Pase = experiment: liver G6Pase mRNA by real-time PCR after the infusions; assay type: in vivo, Sprague-Dawley rats
Text: (§2) Gene expression. Gluconeogenic enzymes. Quantitative analysis of gene expression was done using RT-PCR. Total RNA was isolated with Trizol (Invitrogen) and single-strand cDNA was synthesized with a kit provided by Invitrogen. Real-time PCR reactions and the primers for G6Pase and PEPCK were done as described (Pocai et al., in press). The copy number of each transcript was derived from a standard curve of cloned target templates. Expression of each transcript was normalized to copy number for 18s ribosomal protein.

PEPCK = experiment: liver PEPCK mRNA by real-time PCR after the infusions; assay type: in vivo, Sprague-Dawley rats
Text: as §2

[3] = test system: hypothalamic KATP channels; experiment: ICV infusion of insulin, KATP channel blocker (glibenclamide) or both with pancreatic-insulin clamp (1 mU/kg·min); assay type: in vivo, Sprague-Dawley rats; conditions: for Direct: ICV infusion, direct pathway; for glucose infusion needed to prevent hypoglycemia: near basal circulating insulin levels
Text: Animal preparation for the in vivo experiments. Rats. Eighty-nine 10-week-old male Sprague-Dawley rats (Charles River Breeding Laboratories, Wilmington, Mass.) were studied. Rats were housed in individual cages and subjected to a standard light-dark cycle. Three weeks prior to the in vivo studies, chronic catheters were implanted in the third cerebral ventricle (Obici et al., 2003; Liu et al., 1998) or intrahypothalamically (Morton et al., 2003) (IH) by stereotaxic surgery. […] In vivo studies. For the studies in rats, the metabolic experiments were performed ˜3 weeks after stereotaxic surgery following complete recovery from the operation (FIG. 5). All solutions were diluted with artificial cerebral spinal fluid (aCSF). […] Euglycemic-hyperinsulinemic clamps in conscious, unrestrained, catheterized mice were performed for 90 min as previously described (Obici et al., 2003; Liu et al., 1998). Hepatic glucose fluxes. Rate of hepatic glucose fluxes was determined as described. Barzilai et al., 1997).

[4] = biological target: T1, hypothalamic insulin receptors (Rattus norvegicus, UniProt P15127); experiment: ICV insulin in rats with hepatic branch vagotomy (HV), sham operation or vagal deafferentation, pancreatic-insulin clamp (1 mU/kg·min); assay type: in vivo, Sprague-Dawley rats
T1 construct: Paired groups of SHAM and HV rats received an ICV infusion of either insulin or vehicle; from tissue; host or cells: CNS / hypothalamus of living Sprague-Dawley rats (ICV infusion)
Text: Animal preparation for the in vivo experiments. Rats. Eighty-nine 10-week-old male Sprague-Dawley rats (Charles River Breeding Laboratories, Wilmington, Mass.) were studied. Rats were housed in individual cages and subjected to a standard light-dark cycle. Three weeks prior to the in vivo studies, chronic catheters were implanted in the third cerebral ventricle (Obici et al., 2003; Liu et al., 1998) or intrahypothalamically (Morton et al., 2003) (IH) by stereotaxic surgery.
(§3) In vivo studies. For the studies in rats, the metabolic experiments were performed ˜3 weeks after stereotaxic surgery following complete recovery from the operation (FIG. 5). All solutions were diluted with artificial cerebral spinal fluid (aCSF). […] Euglycemic-hyperinsulinemic clamps in conscious, unrestrained, catheterized mice were performed for 90 min as previously described (Obici et al., 2003; Liu et al., 1998).
(§4) Selective hepatic branch vagotomy. One week before the clamp procedure a subgroup of rats underwent selective hepatic vagotomy (HV) or sham operation (SHAM). Anatomical nerve transactions was verified in each rat at sacrifice by microscopic observation of the absence of vagal nerve fibers in between the two silk sutures that had been placed along the trunk at the time of transection (la Fleur et al., 2003).
Selective vagal deafferentation. Nerve transection was performed as previously described, according to the methods of Norgren and Smith (Norgren & Smith, 1998).
(§5) Hepatic glucose fluxes. Rate of hepatic glucose fluxes was determined as described. Barzilai et al., 1997).

[5] = test system: hepatic glucose production; experiment: pancreatic-hyperinsulinemic clamp (insulin 3 mU/kg·min) in SHAM and HV rats; assay type: in vivo, Sprague-Dawley rats; conditions: for suppression of GP (glucose production): hyperinsulinemia ~3-fold over basal; for Direct / % Indirect: systemic insulin (3 mU); for Direct: direct pathway; for % Indirect: indirect pathway
Method: Panel A is a schematic representation of the pancreatic-hyperinsulinemic clamp procedure. At t=120 an infusion of labeled glucose was initiated and maintained for the remaining 4 hours of the study and a pancreatic hyperinsulinemic clamp was initiated at t=240 min and lasted for 2 hours. […] The figure is a longitudinal view of a rat brain, with olfactory bulb at the anterior end on the left and the caudal hindbrain on the right.
as §3, §4, §5

[6] = selective vagal deafferentation, ability of central insulin not altered
[7] = ICV insulin with or without KATP channel blocker

T1 sequence (P15127 27-759 limits assumed): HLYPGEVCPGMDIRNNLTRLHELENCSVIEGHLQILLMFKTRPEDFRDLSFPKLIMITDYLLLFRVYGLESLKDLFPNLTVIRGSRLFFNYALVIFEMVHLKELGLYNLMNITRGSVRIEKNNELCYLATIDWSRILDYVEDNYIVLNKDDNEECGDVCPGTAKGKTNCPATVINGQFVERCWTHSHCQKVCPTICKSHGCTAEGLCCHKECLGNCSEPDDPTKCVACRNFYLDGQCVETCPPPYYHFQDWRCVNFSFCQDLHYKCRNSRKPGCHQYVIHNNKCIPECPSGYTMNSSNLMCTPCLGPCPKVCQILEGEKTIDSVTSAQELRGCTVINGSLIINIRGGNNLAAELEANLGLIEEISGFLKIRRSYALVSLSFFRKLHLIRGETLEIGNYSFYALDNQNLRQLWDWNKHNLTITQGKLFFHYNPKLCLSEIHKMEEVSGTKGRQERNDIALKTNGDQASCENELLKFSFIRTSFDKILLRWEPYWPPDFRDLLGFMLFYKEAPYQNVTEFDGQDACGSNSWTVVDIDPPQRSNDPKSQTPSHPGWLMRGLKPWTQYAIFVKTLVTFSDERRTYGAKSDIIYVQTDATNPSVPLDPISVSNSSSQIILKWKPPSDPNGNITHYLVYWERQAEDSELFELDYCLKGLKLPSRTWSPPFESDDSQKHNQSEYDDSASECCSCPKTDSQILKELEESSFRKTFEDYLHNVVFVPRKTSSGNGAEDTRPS
T1 sequence (P15127 764-1383 partner limits assumed): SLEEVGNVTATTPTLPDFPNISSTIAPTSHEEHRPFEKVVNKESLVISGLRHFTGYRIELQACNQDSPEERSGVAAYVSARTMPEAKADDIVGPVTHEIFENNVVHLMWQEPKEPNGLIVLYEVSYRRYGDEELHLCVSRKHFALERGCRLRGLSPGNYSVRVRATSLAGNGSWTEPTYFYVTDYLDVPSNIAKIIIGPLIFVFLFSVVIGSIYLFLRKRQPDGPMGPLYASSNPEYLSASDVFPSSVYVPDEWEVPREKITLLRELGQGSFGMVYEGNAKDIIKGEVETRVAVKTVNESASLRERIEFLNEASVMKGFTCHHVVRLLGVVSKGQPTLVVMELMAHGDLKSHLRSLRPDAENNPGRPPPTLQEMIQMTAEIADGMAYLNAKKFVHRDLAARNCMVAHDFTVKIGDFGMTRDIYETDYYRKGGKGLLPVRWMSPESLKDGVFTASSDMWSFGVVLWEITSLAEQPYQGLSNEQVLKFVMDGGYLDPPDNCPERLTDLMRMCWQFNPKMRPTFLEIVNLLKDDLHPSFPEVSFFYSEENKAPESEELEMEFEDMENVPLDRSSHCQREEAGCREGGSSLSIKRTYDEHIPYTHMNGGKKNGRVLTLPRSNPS

For `CC1=NS(=O)(=O)c2cc(Cl)ccc2N1` [diazoxide, reference compound], the glucose cycling (central KATP channels; ICV) was “significantly reduced”, the “in vivo flux through G6Pase” value (central KATP channels; ICV) was “decreased the flux through G6Pase” and the Direct (central KATP channels; ICV infusion, direct pathway) was 14.37 ± 2.2%. For the same compound, the “decrease in GP (glucose production)” value (central KATP channels; ICV, 1.5 nmol, basal insulin levels (~20 μU/ml)) was 45±4%, the “glucose infusion needed to prevent hypoglycemia” value (shortened to “glucose infusion needed”) (central KATP channels; ICV, basal circulating insulin levels) was “glucose infusion was required to prevent hypoglycemia” and the “inhibition of glucose production” value ([1]; ICV or intrahypothalamic infusion) was about 45%. For the same compound, the “rate of glucose infusion required to prevent hypoglycemia” value [2] was “significant increases”, the blood glucose levels [2] was “lowered blood glucose levels” and the “GP (glucose production)” value [2] was “marked suppression of GP”. The “liver G6Pase mRNA levels” value (G6Pase; ICV diazoxide study) was “markedly decreased” and the “liver PEPCK mRNA levels” value (PEPCK; ICV diazoxide study) was “markedly decreased”.

In the case of `COc1ccc(Cl)cc1C(=O)NCCc1ccc(S(=O)(=O)NC(=O)NC2CCCCC2)cc1` [glibenclamide, 5-Chloro-N-[2-[4-(3-cyclohexylureidosulfonyl)phenyl]-ethyl]-2-methoxybenzamide, reference compound], the Direct [3] is reported as 18.5 ± 2.8%, the “GP (glucose production)” value ([3]; ICV, blocker alone or co-infused with insulin) is reported as “did not per se affect GP” and the “glucose infusion needed” value ([3]; ICV) is reported as “did not modify the rate of glucose infusion”.

insulin was tested, and the “^14C-PEP” value ([4]; HV, ICV) was 5.5 ± 1.4 dpm/nmol, the “glucose infusion needed” value ([4]; HV, ICV insulin) was “not in the HV rats” and the hepatic glucose fluxes ([4]; HV, ICV insulin) was “failed to affect hepatic glucose fluxes”. The “^3H-Glucose Plasma SA” value ([4]; SHAM, ICV) was 43.1 ± 1.9 dpm/nmol, the “^3H-UDPglucose Liver SA” value ([4]; SHAM, ICV) was 5.5 ± 0.5 dpm/nmol and the gluconeogenesis ([4]; SHAM, ICV insulin) was “marked inhibition of gluconeogenesis”. The “glucose infusion needed” value ([4]; SHAM, ICV insulin) was “glucose infusion was required to prevent hypoglycemia”, the “in vivo flux through G6Pase” value ([4]; SHAM, ICV insulin) was “markedly decreased” and the Direct ([4]; SHAM, ICV, direct pathway) was 12.1 ± 0.7%. The “rate of glucose uptake” value ([4]; either SHAM or HV rats, ICV) was “not significantly affected”, the “GP (glucose production)” value [4, 6] was “suppress GP” and the blood glucose levels [4, 6] was “lower blood glucose levels”. For the same compound, the glucose production ([1]; central administration) was “failed to significantly inhibit glucose production”, the “rate of glucose infusion required to prevent hypoglycemia” value [2] was “significant increases” and the blood glucose levels [2] was “reproduced the potent effects of ICV insulin or diazoxide”. The “GP (glucose production)” value [2] was “reproduced the potent effects of ICV insulin or diazoxide”, the “in vivo flux through G6Pase” value ([3]; ICV) was “markedly decreased” and the Direct [3] was 12.1 ± 0.7%. For the same compound, the “decrease in GP (glucose production)” value ([3]; ICV insulin 30 μU, basal and equal insulin levels (~20 μU/ml)) was 52±8%, the “glucose infusion needed” value ([3]; ICV) was “glucose infusion was required to prevent hypoglycemia” and the “rate of glucose disposal (uptake)” value ([3]; ICV, pancreatic-insulin clamp) was “not significantly affected”. The Glucose ([5]; HV, Clamp, systemic insulin 3 mU/Kg·min) was 8.1 ± 0.5 mM, the “suppression of GP (glucose production)” value ([5]; HV) was 38±11% and the Direct ([5]; HV) was 22.0 ± 2.3%. The “% Indirect” value ([5]; HV) was 60.7 ± 9.4 %, the “suppression of GP (glucose production)” value ([5]; SHAM) was 80±8% and the Direct ([5]; SHAM) was 22.8 ± 3.9%. For the same compound, the “% Indirect” value ([5]; SHAM) was 34.5 ± 6.7%, the “liver G6Pase mRNA levels” value (G6Pase; [7]) was “marked KATP channels dependent decreases” and the “liver G6Pase mRNA levels” value (G6Pase; SHAM, ICV insulin) was “marked decrease”. The “liver PEPCK mRNA levels” value (PEPCK; HV, ICV insulin) was “not in HV rats”, the “liver PEPCK mRNA levels” value (PEPCK; [7]) was “marked KATP channels dependent decreases” and the “liver PEPCK mRNA levels” value (PEPCK; SHAM, ICV insulin) was “marked decrease”.
